US5462926A (Biomeasure, Inc., priority 1993, dated 1995)
Read-outs that look alike come from different tables or passages of the source. Where a SMILES comes first, the peptide text is derived from it. Bridges are numbered along the chain shown (N, C = ends). [ ]: non-standard residue; d: D form. 2Nal = N[C@@H](Cc1ccc2ccccc2c1)C(=O)O; d2Nal = N[C@H](Cc1ccc2ccccc2c1)C(=O)O

Legend:
[1] = test system: GRP receptors on rat pancreatic acini; assay: Binding of 125I-[Tyr4]bombesin to pancreatic acini; settings: NMB-R transfected cells vs GRP-R on rat pancreatic acini
Text: Nonsaturable binding was<10% of total binding in all experiments.

[2] = target: T1, NMB receptors on C-6 cells (Rattus norvegicus, UniProt P24053); assay: Binding of 125I-[D-Tyr0]NMB to C-6 glioblastoma cells; settings: for Ki: Ki by Cheng method, read-out: Ki 125I-NMB Binding, NMB Receptor, C-6 Cells
T1 construct: endogenous in cells; host or cells: rat glioblastoma C-6 cells
T1 sequence (P24053 1-390): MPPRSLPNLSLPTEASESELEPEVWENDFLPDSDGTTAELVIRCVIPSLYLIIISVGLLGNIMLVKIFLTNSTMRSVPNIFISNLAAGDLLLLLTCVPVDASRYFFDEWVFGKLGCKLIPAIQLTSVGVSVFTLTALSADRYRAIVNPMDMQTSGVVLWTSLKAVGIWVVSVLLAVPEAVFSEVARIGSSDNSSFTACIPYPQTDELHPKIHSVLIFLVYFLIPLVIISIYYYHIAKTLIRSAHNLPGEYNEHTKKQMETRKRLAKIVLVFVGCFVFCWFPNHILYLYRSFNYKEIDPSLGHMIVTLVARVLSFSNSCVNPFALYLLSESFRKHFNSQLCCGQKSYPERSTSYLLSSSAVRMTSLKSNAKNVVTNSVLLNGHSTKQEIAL
How it was run: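 Disaggregated rat C-6 glioblastoma cells (15×10^6/ml) or NMB-R-transfected cells (2×10^6/ml) were incubated with 75 pM 125I-[D-Tyr0]NMB for 60 min at 22° C in HEPES binding buffer with 0.2% BSA, pH 7.4. Values are saturable binding: total minus binding in the presence of excess unlabelled NMB.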

NMB receptor = target: T2, NMB receptor (Rattus norvegicus, UniProt P24053); assay: [3H]IP in C-6 glioblastoma cells (alone or NMB-stimulated); type: cell-based; design: a full length NMB-preferring bombesin receptor clone generated from rat esophagus; expressed in transfected cells; settings: for [3H]IP, no peptide added / [3H]IP with NMB (10 nM): analog 10 μM; for [3H]IP, no peptide added: 60 min 37° C., control 7.2 ± 1.0; for [3H]IP with NMB (10 nM): NMB alone 21.0 ± 1.8
T2 sequence (P24053 1-390): T1 sequence (P24053 1-390)
Protocol: (§1) Total phosphoinositides in C-6 cells and in NMB-R transfected cells were determined as described previously, with minor modifications [Benya, R. V. et al. Mol. Pharmacol. 42:1058 (1992); and Wang, L-H. et al. Biochem. Jo 286:641 (1992)]. Cells were grown to confluence in 24-well plates and then loaded with 100 μCi/ml myo-[2-^3 H]inositol in Dulbecco's modified essential medium with 2% fetal bovine serum at 37° C. for 48 hrs. Cells were washed and incubated in phosphoinositide buffer (standard buffer additionally containing 10 mM LiCl, 20 mM HEPES, 2 mM CaCl2, 2% BSA, and 1.2 mM MgSO4) for 15 min and then for 60 min at 37° C. with agonists at various concentrations or with 3 nM NMB (a half-maximal effective concentration) and possible antagonists at different concentrations. Reactions were halted using ice-cold 1% HCl in methanol, and the inositol phosphates (IP) were isolated as described previously [Bologna, M. et al. Cancer 63:1714 (1989); and Endo, T. et al. J. Endocrinolo 131:313 (1991)]. Briefly, after loading of the anion exchange column, free [^3 H]glycerophosphorylinositol was removed by washing with 5 mM disodium tetraborate in 60 mM sodium formate. Total [^3 H]inositol phosphates were then eluted using 100 mM formic acid in 1.0M ammonium formate as described previously [Benya, R. V. et al. Mol. Pharmacol. 42:1058 (1992); and Wang, L-H. et al. Biochem. J. 286:641 (1992 )].
(§2) without SSoctapeptide analog added. C6 glioblastoma cells (50,000
(§3) cells/well) were incubated with myo[2^3 H]inositol for two days,
(§4) washed and then incubated with or without the indicated peptides for 60
(§5) minutes at 37° C. in phosphoinositide buffer containing 10 mM LiCl
(§6) as described in METHODS. [^3 H]IP was measured using Dowex AG1X8 anio

[3] = test system: endothelin-1-stimulated increases in [3H]IP; assay: Endothelin-1-stimulated [3H]IP in C-6 glioblastoma cells; type: cell-based, rat; settings: for [3H]IP with ET-1 (0.1 nM): analog 10 μM, ET-1 alone 11.0 ± 2.1
Protocol: as §1, §2, §3, §4, §5, §6

TRH receptor = assay: TRH membrane assay, rat forebrain; type: binding; settings: 1 μM
dopamine2 receptor = target: T3, dopamine2 receptor (Rattus norvegicus, UniProt P61169); assay: Dopamine2 membrane receptor assay, rat corpus striatum; type: binding; settings: 1 μM
T3 construct: rat corpus striatum (dopamine1 and dopamine2 membrane receptor assays); from tissue; host or cells: rat corpus striatum membranes
T3 sequence (P61169 whole entry): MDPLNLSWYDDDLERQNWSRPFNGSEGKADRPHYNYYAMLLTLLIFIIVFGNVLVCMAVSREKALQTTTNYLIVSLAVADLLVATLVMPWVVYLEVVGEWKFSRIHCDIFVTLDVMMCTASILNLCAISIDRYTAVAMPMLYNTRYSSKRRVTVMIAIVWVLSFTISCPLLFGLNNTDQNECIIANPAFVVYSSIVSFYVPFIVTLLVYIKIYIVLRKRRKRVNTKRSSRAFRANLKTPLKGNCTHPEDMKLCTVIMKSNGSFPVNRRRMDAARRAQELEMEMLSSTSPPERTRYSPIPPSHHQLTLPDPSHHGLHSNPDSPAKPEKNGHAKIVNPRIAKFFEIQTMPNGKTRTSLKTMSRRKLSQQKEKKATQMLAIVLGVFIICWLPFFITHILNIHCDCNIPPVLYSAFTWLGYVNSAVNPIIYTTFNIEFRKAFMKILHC

[4] = target: T4, N-methyl D-aspartate receptors (Rattus norvegicus, UniProt P35439); assay: N-methyl-D-aspartate membrane receptor assay, rat cerebral cortex; type: binding; settings: 1 μM
T4 construct: from tissue; host or cells: rat cerebral cortex membranes

CCKB = target: T5, CCKB (Rattus norvegicus, UniProt P30553); assay: CCKB membrane receptor assay, rat cerebral cortex; type: binding; settings: 1 μM
T5 construct: rat cerebral cortex (CCKB, PYY, neurotensin,; from tissue; host or cells: rat cerebral cortex membranes
T5 sequence (P30553 whole entry): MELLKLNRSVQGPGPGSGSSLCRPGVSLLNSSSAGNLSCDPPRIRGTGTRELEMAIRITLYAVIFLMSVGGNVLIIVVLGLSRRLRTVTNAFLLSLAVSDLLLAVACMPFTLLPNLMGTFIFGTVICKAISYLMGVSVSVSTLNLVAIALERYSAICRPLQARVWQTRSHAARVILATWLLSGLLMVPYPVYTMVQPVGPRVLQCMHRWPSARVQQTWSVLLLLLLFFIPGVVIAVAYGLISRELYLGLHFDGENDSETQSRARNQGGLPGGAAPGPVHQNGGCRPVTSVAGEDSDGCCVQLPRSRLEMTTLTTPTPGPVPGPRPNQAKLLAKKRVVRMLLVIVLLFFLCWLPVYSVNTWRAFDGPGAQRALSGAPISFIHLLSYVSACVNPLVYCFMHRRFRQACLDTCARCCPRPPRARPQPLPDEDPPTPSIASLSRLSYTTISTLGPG

histamine H1 receptor = target: T6, histamine H1 receptor (Cavia porcellus, UniProt P31389); assay: Histamine H1 membrane receptor assay, guinea pig cerebral; type: binding; settings: 1 μM
T6 construct: guinea pig cerebral (N1, histamine H1, and sigma opioid membrane receptor assays); from tissue; host or cells: guinea pig cerebral membranes
T6 sequence (P31389 whole entry): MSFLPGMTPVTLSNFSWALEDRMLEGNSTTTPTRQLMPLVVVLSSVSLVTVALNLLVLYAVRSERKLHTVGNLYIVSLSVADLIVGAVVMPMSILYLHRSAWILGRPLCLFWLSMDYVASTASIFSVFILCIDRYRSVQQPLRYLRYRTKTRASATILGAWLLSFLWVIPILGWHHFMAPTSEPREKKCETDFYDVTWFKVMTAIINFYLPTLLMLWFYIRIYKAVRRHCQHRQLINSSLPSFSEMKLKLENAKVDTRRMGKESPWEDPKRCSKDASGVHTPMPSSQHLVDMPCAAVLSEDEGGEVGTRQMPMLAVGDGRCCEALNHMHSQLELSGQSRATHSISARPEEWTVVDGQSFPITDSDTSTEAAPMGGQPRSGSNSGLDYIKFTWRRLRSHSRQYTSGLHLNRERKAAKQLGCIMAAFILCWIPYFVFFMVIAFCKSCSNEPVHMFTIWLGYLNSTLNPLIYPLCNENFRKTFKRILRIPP

sigma opioid receptor = target: T7, sigma opioid receptor (Cavia porcellus, UniProt Q60492); assay: Sigma opioid membrane receptor assay, guinea pig cerebral; type: binding; settings: 1 μM
T7 construct: guinea pig cerebral (N1, histamine H1, and sigma opioid membrane receptor assays); from tissue; host or cells: guinea pig cerebral membranes
T7 sequence (Q60492 whole entry): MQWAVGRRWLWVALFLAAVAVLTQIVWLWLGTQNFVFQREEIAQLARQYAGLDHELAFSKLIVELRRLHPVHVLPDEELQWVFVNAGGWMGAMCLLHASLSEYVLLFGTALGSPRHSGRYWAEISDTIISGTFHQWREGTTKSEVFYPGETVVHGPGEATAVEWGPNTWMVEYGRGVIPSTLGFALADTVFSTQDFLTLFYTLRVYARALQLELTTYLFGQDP

CCKA receptors = target: T8, CCKA receptors (Rattus norvegicus, UniProt P30551); assay: CCKA receptor assay, 125I-CCK-8, rat pancreatic membranes; type: binding
T8 construct: rat pancreas (CCKA receptor assay); from tissue; host or cells: rat pancreas membranes
T8 sequence (P30551 whole entry): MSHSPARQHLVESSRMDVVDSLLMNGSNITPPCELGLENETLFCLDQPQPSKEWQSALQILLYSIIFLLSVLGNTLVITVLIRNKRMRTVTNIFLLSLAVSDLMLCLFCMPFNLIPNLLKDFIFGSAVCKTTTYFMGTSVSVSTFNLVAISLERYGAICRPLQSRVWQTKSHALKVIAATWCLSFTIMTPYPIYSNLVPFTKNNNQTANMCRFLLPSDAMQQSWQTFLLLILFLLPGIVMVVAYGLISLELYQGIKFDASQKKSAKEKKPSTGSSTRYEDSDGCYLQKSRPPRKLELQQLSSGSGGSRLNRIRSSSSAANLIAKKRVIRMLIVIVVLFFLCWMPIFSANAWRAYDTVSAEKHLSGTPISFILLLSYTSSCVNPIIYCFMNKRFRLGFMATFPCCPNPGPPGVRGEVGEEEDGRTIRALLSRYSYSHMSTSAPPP

[5] = test system: muscarinic cholinergic receptor; assay: Muscarinic cholinergic membrane receptor assay, rat cerebral cortex; type: binding; settings: 1 μM
endothelinA = target: T9, endothelinA (Rattus norvegicus, UniProt P26684); assay: EtA membrane receptor assay, A10 smooth muscle cells; type: binding; settings: 1 μM
T9 construct: A10 smooth muscle cells (EtA membrane receptor assay); endogenous in cells; host or cells: A10 smooth muscle cells (membranes)
T9 sequence (P26684 21-426): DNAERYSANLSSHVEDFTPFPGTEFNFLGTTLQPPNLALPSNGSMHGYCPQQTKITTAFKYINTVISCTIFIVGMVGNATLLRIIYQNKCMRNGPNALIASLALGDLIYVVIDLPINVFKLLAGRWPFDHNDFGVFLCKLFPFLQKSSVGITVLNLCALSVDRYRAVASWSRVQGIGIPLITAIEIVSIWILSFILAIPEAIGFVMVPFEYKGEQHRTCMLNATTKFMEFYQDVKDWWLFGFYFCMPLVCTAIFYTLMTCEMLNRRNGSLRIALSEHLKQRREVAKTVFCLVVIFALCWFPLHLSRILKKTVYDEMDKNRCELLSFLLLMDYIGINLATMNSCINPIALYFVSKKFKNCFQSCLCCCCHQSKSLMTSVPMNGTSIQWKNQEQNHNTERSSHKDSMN

SMILES | fold greater affinity for NMB than GRP receptors [1] | Ki [2] | effect on NMB-stimulated increases in [3H]IP in C-6 cells (NMB receptor) | [3H]IP, no peptide added (NMB receptor) | [3H]IP with NMB (10 nM) (NMB receptor) | [3H]IP with ET-1 (0.1 nM) [3] | also measured
CC(C)[C@@H]1NC(=O)[C@H](CCCCN)NC(=O)[C@@H](Cc2ccc3ccccc3c2)NC(=O)[C@H](Cc2ccc(O)cc2)NC(=O)[C@@H](NC(=O)[C@H](N)Cc2ccc3ccccc3c2)CSSC[C@@H](C(=O)N[C@@H](Cc2ccc3ccccc3c2)C(N)=O)NC1=O [Analog #17, H2 -D-Nal-Cys-Tyr-D-Nal-Lys-Val-Cys-Nal-NH2] (H-[d2Nal]CY[d2Nal]KVC[2Nal]-NH2; disulfide 2-7) | > 100 fold | 313 ± 33 nM |  |  |  |  | 
C[C@@H](O)[C@H](NC(=O)[C@@H]1CSSC[C@H](NC(=O)[C@H](N)Cc2ccc3ccccc3c2)C(=O)N[C@@H](Cc2ccc(O)cc2)C(=O)N[C@H](Cc2c[nH]c3ccccc23)C(=O)N[C@@H](CCCCN)C(=O)N[C@@H](Cc2ccc3ccccc3c2)C(=O)N1)C(N)=O [Analog #2, H2 -D-Nal-Cys-Tyr-D-Trp-Lys-Nal-Cys-Thr-NH2] |  | 226 ± 36 nM | inhibited | 7.3 ± 1.2 dpm × 10^3 | 14.3 ± 4.2 dpm × 10^3 | 11.2 ± 1.9 dpm × 10^3 | effect on endothelin-1-stimulated increases in [3H]IP in C-6 cells [3]: no effect
NCCCC[C@@H]1NC(=O)[C@@H](Cc2c[nH]c3ccccc23)NC(=O)[C@H](Cc2ccc(O)cc2)NC(=O)[C@@H](NC(=O)[C@H](N)Cc2ccc3ccccc3c2)CSSC[C@@H](C(=O)N[C@@H](Cc2ccc3ccccc3c2)C(N)=O)NC(=O)[C@H](Cc2ccccc2)NC1=O [Analog #13, H2 -D-Nal-Cys-Tyr-D-Trp-Lys-Phe-Cys-Nal-NH2] (H-[d2Nal]CY[dW]KFC[2Nal]-NH2; disulfide 2-7) | > 100 fold | 213 ± 13 nM |  |  |  |  | 
CC(C)[C@@H]1NC(=O)[C@H](CCCCN)NC(=O)[C@@H](Cc2c[nH]c3ccccc23)NC(=O)[C@H](Cc2ccc(O)cc2)NC(=O)[C@@H](NC(=O)[C@H](N)Cc2ccc3ccccc3c2)CSSC[C@@H](C(=O)N[C@@H](Cc2ccc3ccccc3c2)C(N)=O)NC1=O [Analog #1, H2 -D-Nal-Cys-Tyr-D-Trp-Lys-Val-Cys-Nal-NH2] (H-[d2Nal]CY[dW]KVC[2Nal]-NH2; disulfide 2-7) | 84 fold | 59 ± 9 nM | inhibited | 7.4 ± 1.3 dpm × 10^3 | 7.5 ± 1.0 dpm × 10^3 | 10.9 ± 1.8 dpm × 10^3 | fold greater affinity for NMB than GRP receptors ([1]; listed as cyclo SS-octa): 100 fold; inhibition of binding to TRH receptors (TRH receptor): did not inhibit binding; inhibition of binding to dopamine2 receptors (dopamine2 receptor): did not inhibit binding; inhibition of binding to N-methyl D-aspartate receptors [4]: did not inhibit binding; inhibition of binding to CCKB receptors (CCKB): did not inhibit binding; inhibition of binding to histamine H1 receptors (histamine H1 receptor): did not inhibit binding; inhibition of binding to sigma opioid receptors (sigma opioid receptor): did not inhibit binding; inhibition of binding to CCKA receptors (CCKA receptors; 1 μM): did not inhibit binding; Ki (CCKA receptors; rat pancreatic membranes, read-out: affinity, inhibition of 125I-CCK-8 binding to CCKA receptors): 5.537 ± 0.007 µM; Kd ([2]; read-out: Kd, inhibition of 125I-[D-Tyr0]NMB binding, glioblastoma C-6 cells): 59 nM; inhibition of binding to muscarinic cholinergic receptors [5]: did not inhibit binding; inhibition of binding to endothelinA receptors (endothelinA): did not inhibit binding; effect on endothelin-1-stimulated increases in [3H]IP in C-6 cells ([3]; listed as Cycle SS-octa): did not inhibit; effect on endothelin-1-stimulated increases in [3H]IP in C-6 cells ([3]; listed as cyclo SS octa): no effect
